In ChEMBL document CHEMBL5331073, “Discovery of novel 7,7-dimethyl-6,7-dihydro-5H-pyrrolo[3,4-d]pyrimidines as ATR inhibitors based on structure-based drug design” (Eur J Med Chem, 2023):
In brackets after ≈: the same amount, converted by molar mass. Activity calls are given as the source filed them. The calls are words filed in the database; no cut-off is given here.

Assays:
[1] = MRT (0 to infinity) in Sprague-Dawley rat at 5 mg/kg, po and measured upto 24 hrs by LC-MS analysis; format: ADME, organism-based; details: in vivo
in vitro [2] = details: human, liver microsomes
[3] = target: DNA-dependent protein kinase catalytic subunit (Homo sapiens, UniProt P78527); assay: Inhibition of DNA-PK (unknown origin) using peptide as substrate preincubated for 10 mins followed by substrate addition by microplate reader analysis
A549 [4] = assay: Antiproliferative activity against ATM-proficient human A549 cells assessed as reduction in cell viability incubated for 3 days in presence of AZD-1390 by MTT assay; format: functional, cell-based; details: A549, 72 h
LoVo [5] = assay: Antimigratory activity against ATM-deficient human LoVo cells assessed as inhibition of cell migration at 0.03 to 3 uM incubated for 24 hrs by crystal violet staining based Transwell migration assay; format: functional; details: dose 0.03-3 µM
[6] = Aqueous solubility of compound at pH 2.0 by HPLC-MS/MS analysis; format: physicochemical; details: aqueous medium
HCT-116 = assay: Synergistic antiproliferative activity against ATM-proficient human HCT-116 cells assessed as reduction in cell viability incubated for 3 days in presence of cisplatin by MTT assay; format: functional, cell-based; details: HCT-116, 72 h
[7] = Protein binding in Beagle dog plasma at 1 uM incubated for 6 hrs by dialysis based LC-MS/MS analysis; format: ADME, cell-free, Canis lupus familiaris; details: read-out: PPB (converted)
in vitro [8] = details: rat, liver microsomes
[9] = Protein binding in monkey plasma at 1 uM incubated for 6 hrs by dialysis based LC-MS/MS analysis; format: ADME, cell-free, Macaca mulatta; details: rhesus monkey, read-out: PPB (converted)
[10] = Clearance in Sprague-Dawley rat at 1 mg/kg, iv and measured upto 24 hrs by LC-MS analysis; format: ADME, organism-based; details: in vivo
[11] = Half life in Sprague-Dawley rat at 1 mg/kg, iv and measured upto 24 hrs by LC-MS analysis; format: ADME, organism-based; details: in vivo
[12] = Aqueous solubility of compound at pH 7.4 by HPLC-MS/MS analysis; format: physicochemical; details: aqueous medium
A549 [13] = assay: Antiproliferative activity against ATM-proficient human A549 cells assessed as reduction in cell viability incubated for 3 days by MTT assay; format: functional, cell-based; details: A549, 72 h
[14] = Cmax in Sprague-Dawley rat at 5 mg/kg, po and measured upto 24 hrs by LC-MS analysis; format: ADME, organism-based; set-up: time < 24 hrs, dose 5 mg/kg, route po; details: in vivo
[15] = target: Serine/threonine-protein kinase mTOR (Homo sapiens, UniProt P42345); assay: Inhibition of mTOR (unknown origin) using peptide as substrate preincubated for 10 mins followed by substrate addition by microplate reader analysis
Cytochrome P450 2C9 = Cytochrome P450 2C9 (Homo sapiens, UniProt P11712); assay: Inhibition of CYP2C9 in human liver microsomes using […] as substrate preincubated for 5 mins followed by NADPH addition and measured after 120 mins by LC-MS/MS analysis; format: ADME, Microsome
Sequence of Cytochrome P450 2C9 (P11712 whole entry): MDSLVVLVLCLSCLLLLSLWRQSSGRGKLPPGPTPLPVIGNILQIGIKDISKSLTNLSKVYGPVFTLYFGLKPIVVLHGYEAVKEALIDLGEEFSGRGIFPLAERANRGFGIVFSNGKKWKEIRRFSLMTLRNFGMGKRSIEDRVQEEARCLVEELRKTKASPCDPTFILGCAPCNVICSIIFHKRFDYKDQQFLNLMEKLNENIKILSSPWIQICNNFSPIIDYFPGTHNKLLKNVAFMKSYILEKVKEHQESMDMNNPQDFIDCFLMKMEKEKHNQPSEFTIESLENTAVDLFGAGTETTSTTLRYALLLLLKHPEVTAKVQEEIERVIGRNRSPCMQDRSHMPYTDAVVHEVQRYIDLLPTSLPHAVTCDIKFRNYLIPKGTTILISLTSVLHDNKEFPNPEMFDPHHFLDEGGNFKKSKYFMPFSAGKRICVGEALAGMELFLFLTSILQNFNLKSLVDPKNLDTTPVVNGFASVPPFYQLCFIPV

[16] = Efflux ratio of apparent permeability across basolateral to apical side over apical to basolateral side in human Caco2 cells; format: ADME, cell-based; details: Caco-2
Cytochrome P450 2C19 = Cytochrome P450 2C19 (Homo sapiens, UniProt P33261); assay: Inhibition of CYP2C19 in human liver microsomes using […] as substrate preincubated for 5 mins followed by NADPH addition and measured after 120 mins by LC-MS/MS analysis; format: ADME, Microsome
Sequence of Cytochrome P450 2C19 (P33261 whole entry): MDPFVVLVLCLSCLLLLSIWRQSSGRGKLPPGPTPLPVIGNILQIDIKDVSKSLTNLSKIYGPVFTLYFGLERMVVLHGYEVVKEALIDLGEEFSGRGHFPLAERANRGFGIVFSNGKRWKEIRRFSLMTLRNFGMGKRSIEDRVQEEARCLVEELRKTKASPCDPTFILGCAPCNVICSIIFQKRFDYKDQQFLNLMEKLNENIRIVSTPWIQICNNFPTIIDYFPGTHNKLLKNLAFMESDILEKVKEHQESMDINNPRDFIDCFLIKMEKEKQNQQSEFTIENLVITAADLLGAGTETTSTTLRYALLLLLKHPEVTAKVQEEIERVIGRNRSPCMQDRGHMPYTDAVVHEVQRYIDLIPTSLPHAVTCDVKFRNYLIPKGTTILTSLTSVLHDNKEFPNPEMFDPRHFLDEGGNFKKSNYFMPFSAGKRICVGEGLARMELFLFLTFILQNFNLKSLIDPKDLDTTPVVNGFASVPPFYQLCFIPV

MCF7 = assay: Antiproliferative activity against human MCF7 cells assessed as reduction in cell viability incubated for 3 days by MTT assay; format: functional, cell-based; details: MCF7, 72 h
Cytochrome P450 2D6 = Cytochrome P450 2D6 (Homo sapiens, UniProt P10635); assay: Inhibition of CYP2D6 in human liver microsomes using […] as substrate preincubated for 5 mins followed by NADPH addition and measured after 120 mins by LC-MS/MS analysis; format: ADME, Microsome
Sequence of Cytochrome P450 2D6 (P10635 whole entry): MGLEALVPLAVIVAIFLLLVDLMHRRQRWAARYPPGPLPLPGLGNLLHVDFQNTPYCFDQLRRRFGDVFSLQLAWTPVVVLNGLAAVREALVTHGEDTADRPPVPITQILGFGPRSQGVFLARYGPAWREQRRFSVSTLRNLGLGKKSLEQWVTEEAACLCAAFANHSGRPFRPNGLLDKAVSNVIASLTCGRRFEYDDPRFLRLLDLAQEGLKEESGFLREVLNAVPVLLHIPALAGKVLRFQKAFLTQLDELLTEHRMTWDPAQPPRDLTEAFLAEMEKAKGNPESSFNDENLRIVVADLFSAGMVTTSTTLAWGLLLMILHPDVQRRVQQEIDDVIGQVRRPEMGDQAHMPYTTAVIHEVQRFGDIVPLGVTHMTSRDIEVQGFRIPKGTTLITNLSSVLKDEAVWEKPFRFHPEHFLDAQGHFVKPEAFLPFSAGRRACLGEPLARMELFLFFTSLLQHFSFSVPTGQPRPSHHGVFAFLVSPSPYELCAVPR

[17] = Volume of distribution at steady state in Sprague-Dawley rat at 1 mg/kg, iv and measured upto 24 hrs by LC-MS analysis; format: ADME, organism-based; details: in vivo, read-out: Vdss
[18] = AUCt in Sprague-Dawley rat at 1 mg/kg, iv and measured upto 24 hrs by LC-MS analysis; format: ADME, organism-based; set-up: dose 1 mg/kg, time < 24 hrs, route iv; details: in vivo
[19] = Apparent permeability across apical to basolateral side in human Caco-2 cells by bidirectional permeability assay; format: ADME, cell-based
[20] = AUCt in Sprague-Dawley rat at 5 mg/kg, po and measured upto 24 hrs by LC-MS analysis; format: ADME, organism-based; set-up: time < 24 hrs, dose 5 mg/kg, route po; details: in vivo
in vitro [21] = details: rat, liver microsomes; remark: listed apart in the source
HT-29 = assay: Antiproliferative activity against ATM-proficient human HT-29 cells assessed as reduction in cell proliferation at 0.5 to 22 uM incubated for 3 days by MTT assay; format: functional, cell-based; details: dose 0.5-22 µM, time 3.0 day
LoVo [22] = assay: Inhibition of colony formation of ATM-deficient human LoVo cells at 0.3 to 1 uM incubated for 2 weeks by crystal violet staining based assay; format: functional, cell-based; details: dose 0.3-1 µM
LoVo [23] = assay: Antiproliferative activity against ATM-deficient human LoVo cells assessed as reduction in cell proliferation at 0.1 to 25 uM incubated for 3 days by MTT assay; format: functional, cell-based; details: dose 0.1-25 µM, time 3.0 day

Row | Compound | MRT inf [1] [h] | microsomal CLint at 1 h, 1 µM (in vitro [2]) [µL/min/mg] | IC50 [3] [nM] | IC50 (A549 [4]) [nM] | inhibition (LoVo [5]) | solubility [6] [µM] | IC50 (HCT-116) [nM] | fraction unbound at 6 h, 1 µM [7] | microsomal CLint at 1 h, 1 µM (in vitro [8]) [µL/min/mg] | fraction unbound at 6 h, 1 µM [9] | clearance [10] [mL/min/kg] | half-life [11] [min] | solubility [12] [µM] | IC50 (A549 [13]) [nM] | Cmax [14] [ng/mL] | IC50 [15] [nM] | IC50 (Cytochrome P450 2C9) [µM] | efflux ratio [16] | IC50 (Cytochrome P450 2C19) [nM] | IC50 (MCF7) [nM] | other results
1 | C[C@@H]1COCCN1c1nc(-c2cccc3[nH]ccc23)nc2c1CN(C(=O)c1ccc3c(c1)OCO3)C2(C)C | 4.21 | 53.2 | 1000 | 127 | Active | 47.6 (≈ 24.4 µg/mL) | 93 | 0.005 | 35.3 | 0.011 | 5.97 | 95.4 | 0.34 (≈ 0.174 µg/mL) | 741 | 1290 | 33 | 10 | 1.2 | 1000 | 730 | IC50 (Cytochrome P450 2D6): > 10 µM; Vd [17]: 0.785 L/kg; AUC(0-t) at 24 h [18]: 2740 ng·h/mL; Papp A→B [19]: 1.91 ×10⁻⁶ cm/s; AUC(0-t) at 24 h [20]: 5700 ng·h/mL; CLint scaled at 1 h, 1 µM (in vitro [21]): 63.6 mL/min/kg
2 | C[C@@H]1COCCN1c1nc(-c2cccc3[nH]ccc23)nc2c1CN(C(=O)c1cccc(S(C)(=O)=O)c1)C2(C)C | 4.26 | 407 | 662 | 13 | Active | 84.3 (≈ 46 µg/mL) | 24 | 0.022 | 66.2 | 0.079 | 14.2 | 79.2 | 15.4 (≈ 8.4 µg/mL) | 302 | 282 | 18 | 10 | 2 | 1000 | 873 | Activity (HT-29): Dose-Dependent Effect; inhibition (LoVo [22]): Active; Activity (LoVo [23]): Dose-Dependent Effect; IC50 (Cytochrome P450 2D6): > 10 µM; Vd [17]: 1.24 L/kg; AUC(0-t) at 24 h [18]: 1160 ng·h/mL; Papp A→B [19]: 8.23 ×10⁻⁶ cm/s; AUC(0-t) at 24 h [20]: 1620 ng·h/mL; CLint scaled at 1 h, 1 µM (in vitro [21]): 119 mL/min/kg
